# Several values for one entry are separate records, joined by “and”; a condition that tells them apart may be missing. Equal values may be shown once.
# Experiments:
# [1] = target: T1, transient receptor potential cation channel-6 (TRPC6) (Homo sapiens, UniProt Q9Y210); conditions: WO 2013 021038 A1; cited from earlier work
# T1 sequence (Q9Y210 1-931): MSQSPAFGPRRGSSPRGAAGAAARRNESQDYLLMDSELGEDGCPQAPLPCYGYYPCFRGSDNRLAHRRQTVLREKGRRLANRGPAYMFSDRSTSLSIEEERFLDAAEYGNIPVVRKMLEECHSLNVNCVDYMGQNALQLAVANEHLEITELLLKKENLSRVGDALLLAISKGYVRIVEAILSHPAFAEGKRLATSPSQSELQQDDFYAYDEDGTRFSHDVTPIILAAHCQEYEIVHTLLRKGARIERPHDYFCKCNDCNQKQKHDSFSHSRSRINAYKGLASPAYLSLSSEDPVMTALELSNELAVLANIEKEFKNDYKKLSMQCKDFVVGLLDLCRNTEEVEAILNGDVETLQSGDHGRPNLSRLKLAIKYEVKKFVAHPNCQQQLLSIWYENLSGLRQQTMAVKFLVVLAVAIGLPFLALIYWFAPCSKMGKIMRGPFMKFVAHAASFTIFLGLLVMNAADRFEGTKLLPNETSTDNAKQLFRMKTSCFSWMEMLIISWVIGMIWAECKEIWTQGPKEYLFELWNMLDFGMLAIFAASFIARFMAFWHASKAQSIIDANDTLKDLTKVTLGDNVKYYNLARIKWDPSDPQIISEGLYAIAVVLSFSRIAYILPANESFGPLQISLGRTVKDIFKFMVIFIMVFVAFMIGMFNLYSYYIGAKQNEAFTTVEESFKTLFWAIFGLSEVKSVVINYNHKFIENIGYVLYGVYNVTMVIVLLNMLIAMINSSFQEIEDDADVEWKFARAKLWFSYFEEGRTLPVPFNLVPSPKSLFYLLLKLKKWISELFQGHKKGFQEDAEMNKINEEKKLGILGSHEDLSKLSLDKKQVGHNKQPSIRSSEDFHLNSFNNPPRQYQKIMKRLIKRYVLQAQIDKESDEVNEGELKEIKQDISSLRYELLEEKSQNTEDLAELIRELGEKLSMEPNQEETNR
# [2] = system: B16V mouse melanoma cells; assay: Synergistic in vitro melanin inhibition (procedure of Example 1, Kull synergy index); format: cell-based; conditions: experiments 1 and 2, mixture 75% Larixol / 25% SymWhite 377
# Method: (§1) B16V mouse melanoma cells are disseminated in a 96-well micro-titre plate in a concentration of 7.5×10^3 cells/well. After cultivation for 24 h at 37° C. and 5% CO2 in RPMI medium, enriched with 10% foetal calf serum, various concentrations of the test substances and 0.3 mM tyrosine and 10 nM α-MSH (α-melanocyte stimulating hormone) are added and incubated for a further 96 h. The maximum concentration of the test substances used corresponds to 0.1 times the value of the IC20 value of the cytotoxicity assay. Only tyrosine and α-MSH are added to the controls. After incubation, sodium hydroxide solution (final concentrations: 1 M) is added to the culture medium and the absorption (A) is measured after 3 h at 400 nm.
# (§2) The inhibition of pigmentation in the presence of the test compounds was calculated using the following equation: Inhibition of pigmentation (%)=100−[(Atest compound/Acontrol)×100] wherein Atest compound=absorption of the wells with test substance and with cells Acontrol=absorption of the wells without test substance, but with cells
# From the inhibition of pigmentation (%) in a series of dilutions of test compounds, the IC50 for each test compound is calculated. […]
# The Synergy Index (SI)^1 is calculated according to Kull's equation as follows: ^1 The calculation of the synergy index (SI-value) was carried out on the basis of following literature: D. C. […]
# [3] = system: B16V mouse melanoma cells; assay: Depigmentation effect on melanoma cell cultures (inhibition of pigmentation); format: cell-based; conditions: for IC50: Mus musculus, B16V cells, 0.3 mM tyrosine + 10 nM α-MSH, 96 h, absorption at 400 nm
# Method: as §1, §2
# From the inhibition of pigmentation (%) in a series of dilutions of test compounds, the IC50 for each test compound is calculated. This is the concentration of a test compound at which pigmentation is inhibited by 50%.
# [4] = Incorporation into commonly used cosmetic formulations / crystallisation; format: physicochemical; conditions: for incorporation into commonly used cosmetic formulations: own experiments
# Excerpt: The analogues compound manool was already described as skin lightening active (JP 2006 137705 (Pola) and JP 06072855 (Pola)).
# Human skin = assay: Depigmentation effect on ex vivo skin (melanin granules, Fontana-Masson, image analysis); format: cell-based; conditions: 0.1 wt.% in O/W emulsion, topical, 6 days
# Method: Human skin, originating from plastic surgery, was cut into 4×4×3 mm pieces (length×width×height) and placed in culture at the air-liquid interface on a sterilized cotton pad soaked with 5 ml of customized DMEM (Dulbecco's Modified Eagle Medium). Assays were started 24 h after sample acclimatization at 37° C., 5% CO2. O/W emulsions (as described in more detail below) without (=control) and with the test compounds, respectively, were applied topically and incubated for 6 days. Histological sections were prepared and melanin granules stained by Fontana-Masson technique. The granules were quantified by image analysis. The results are compiled in Tables 3.1 and 3.2.
# Phases A and B are heated to 70° C. separately. Pemulen TR1 as well as Ultrez-21 are dispersed in phase B when heated to 70° C. Phase B/C is added to phase A by mixing with an Ultra Turrax, followed by emulsifying. Phase D is slowly added to phase A/B/C using a paddle mixer and a pH 5.5-6 is adjusted. The formulation is cooled down while mixing with a paddle mixer. Phase E is added to the mixture of phase A-D.
# [5] = target: plasminogen activator inhibitor-1 (PAI-1) (Homo sapiens, UniProt P05121); conditions: US 2010 0137194; cited from earlier work
# Chain of plasminogen activator inhibitor-1 (PAI-1) (P05121 24-402, species assumed): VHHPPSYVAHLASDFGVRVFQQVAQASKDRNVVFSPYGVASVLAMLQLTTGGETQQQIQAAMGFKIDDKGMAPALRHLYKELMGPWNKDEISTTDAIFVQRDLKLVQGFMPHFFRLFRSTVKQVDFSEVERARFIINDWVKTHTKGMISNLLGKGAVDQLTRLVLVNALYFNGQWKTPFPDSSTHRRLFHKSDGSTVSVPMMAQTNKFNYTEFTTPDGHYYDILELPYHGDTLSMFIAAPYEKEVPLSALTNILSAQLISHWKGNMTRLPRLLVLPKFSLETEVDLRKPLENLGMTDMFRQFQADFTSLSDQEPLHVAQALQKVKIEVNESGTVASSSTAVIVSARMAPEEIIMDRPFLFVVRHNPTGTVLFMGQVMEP
Structure (SMILES),TRPC6 antagonism [1],Melanin inhibition IC50 [2],IC50 [3] [µM],incorporation into commonly used cosmetic formulations [4],other results
C=CC(C)(O)CCC1C(=C)CC(OC(C)=O)C2C(C)(C)CCCC12C (stereo not shown) [larixyl acetate],TRPC6 antagonists,,,,
"CC(c1ccccc1)c1ccc(O)cc1O (stereo not shown) [SymWhite ® 377, 4-(1-phenylethyl)1,3-dihydroxybenzene]",,0.000021% and 0.000034%,,,
"OC[C@H]1O[C@@H](Oc2ccc(O)cc2)[C@H](O)[C@@H](O)[C@@H]1O [beta-Arbutin, reference compound]",,,67,,
C=C[C@](C)(O)CC[C@H]1C(=C)CC[C@H]2C(C)(C)CCC[C@]12C [manool],,,,difficult to incorporate,"crystallisation in formulation ([4]; formulation with manool, after a few days): crystallisation of manool after a few days"
C=CC(C)(CCC1C(=C)CC(OC(C)=O)C2C(C)(C)CCCC12C)OC(C)=O (stereo not shown) [larixyl diacetate],TRPC6 antagonists,,,,
"C=C[C@@](C)(O)CC[C@H]1C(=C)C[C@H](O)[C@H]2C(C)(C)CCC[C@]12C [Larixol, (1S,4S,4aR,8aS)-4-[(3S)-3-Hydroxy-3-methylpent-4-enyl]-4a,8,8-trimethyl-3-methylenedecahydronaphthalen-1-ol]",TRPC6 antagonists,0.00011%,3.9,can easily be incorporated,inhibitory activity towards melanin formation in melanocytes ([3]; statement in words): strong inhibitory activity; Melanin score vs. Control (Human skin): −41%; PAI-1 inhibition (screening) [5]: PAI-1 inhibitor

# From US9974721B2, “Cosmetic composition for lightening skin and hair” (Symrise AG, priority 2013, dated 2018)
